US20070111251A1, “Chemical address tags” (priority 2003, published 2007)

Legend:
[1] = system: mitochondria; assay: QSLR factorial logistic regression of mitochondrial localization (affinity coefficients, cross-validated prediction); design: species or system human; conditions: for αi^mito: influence of A group on mitochondrial localization, greater = stronger; for estimated A group affinity coefficient ai: mitochondrial affinity, ±5 for groups always or never mitochondrial
Source text: The first column and first row contain the A group and B group labels. The second column and second row contain the estimated A group and B group affinity coefficients (ai and bj respectively). The interior of the table contains the value sij=ai+bj for each compound (where positive values of sij indicate predicted localization to mitochondria, and negative values of sij indicate predicted localization to a non-mitochondrial compartment). The subscript m indicates experimentally determined mitochondrial localization. The subscript o indicates experimentally determined non-mitochondrial localization. The darkened boxes indicate correctly predicted mitochondrial localizations under cross-validation.
Based on this matrix, factorial logistic regression (See, A. Agresti, Categorical Data Analysis, Wiley [2002]) was used to calculate mitochondrial affinity coefficients (ai and bj) for each A and B moiety. (Table 1). Since it is not necessary to observe all possible pairings between A and B building blocks to estimate the affinity coefficients, the QSLR approach can predict localization of unmeasured styryl molecules based on a minimal set of experimentally-determined localizations (see Methods). The methods of the present invention allow assessment of predictivity using the cross-validation technique by holding out one compound and fitting the affinity coefficients using the remaining compounds, predictivity can be assessed by comparing the actual localization of the held-out compound to its predicted localization. Repeating this for every measured compound in the library yields an error rate for the procedure.
Briefly, this technique assigns quantitative scores to each A group (αi^mito) and to each B group (βj^mito), in such a way that αi^mito+βj^mito is positive for compounds with mitochondrial localization, and is negative for compounds lacking mitochondrial localization. […] In additional embodiments, same analysis can be applied to organelles other than mitochondria, provided there are a sufficient number of localizations to specific non-mitochondrial organelles in the combinatorial library of interest for reliable statistical calculations.
In certain embodiments, the predictive performance of the above method was assessed using a cross-validation approach by calculating the proportion of all compounds that are correctly predicted. For cross-validation, each styryl product was set aside in sequence, and the factorial logistic model was fit to the remaining data. Then the resulting A and B scores for the held-out compound were summed. If the sum was positive, the held-out compound was predicted to be mitochondrial, while if the sum was negative, the held-out compound was predicted to be non-mitochondrial. […] The baseline performance of the method scored 104 correct out of 145, or 72%. This number is highly statistically significant compared to random guessing (p-value ˜10^−7). Thus, across the entire library, A and B moieties appear to contribute to localization in an independent, additive fashion.
In some embodiments, subcellular localization data were converted to binary (0/1) values by assigning a value Gij=1 if compound i,j localized to mitochondria (even if it localized to other […] as well), and assigning Gij=0 if compound i,j localized exclusively to any non-mitochondrial cellular structure. Compounds with no localization were omitted from this part of the analysis. The αi and βj coefficients for A or B groups that are always observed to localize to mitochondria, or that never localize to mitochondria, were set to +/−5, respectively. The binary localization data were analyzed using factorial logistic regression. […]

[2] = Additive decomposition of peak excitation and emission wavelengths (model coefficients of A and B groups); conditions: for αi^em: influence of A group on peak emission wavelength; for αi^em / αi^ex: A group 1 as baseline; for αi^ex: influence of A group on peak excitation wavelength
Source text: The chemical structure of the styryl library is illustrated in FIG. 3. […] Initial analysis focused on measurements of peak emission and excitation wavelength obtained for all styryl products showing a single, localized peak (there were 256 such compounds for emission wavelength, and 193 compounds for excitation wavelength). […] The wavelength for the styryl compound formed by joining A group i with B group j is denoted as λij (or more specifically, λij^ex for excitation wavelength and λij^em for emission wavelength). The additive model λij=ai+βj+εij was fit to the data using least squares yielding parameters αi^ex, αi^em, βj^ex, and βj^em that quantify the influence of each A and B group on the spectrum of the styryl product. […] (FIGS. 8A-8B). […] The predictions were made ignoring interactions between the two functional moieties in the styryl compound. The predicted values were obtained without bias, by holding out the data point to be predicted when training the model.
In preferred embodiments, using the cross-validation approach disclosed herein, each compound was held out in sequence, the model was trained using the remaining compounds, then the wavelength value for the held-out compound was predicted based on the resulting fitted model. This process produced correlations between measured and predicted values of ρ^em=0.78 (emission) and ρ^ex=0.69 (excitation).
Based on this analysis, the contribution of the A and B functional groups to the fluorescence of the styryl product is quantified using the fitted coefficients αi^ex, βj^ex, […], and βj^em. Since these coefficients are on a scale without origin, in some embodiments, the invention uses the first A group and B group as a baseline, so […], β1^ex=0, and so on. Table 3 contains the model coefficients of all A and B groups for peak excitation and emission wavelength.
Greater values of αi^ex, αi^em, βj^ex, and βj^em indicate greater peak wavelength. Greater values of αi^mito and […] indicate stronger mitochondrial localization. A groups 40 and 41 were not screened for localization. A groups 2, 29, and 33 only formed fluorescent products with a single B group, so were not included in the spectral analysis.
In some embodiments, the wavelength values for peak excitation and emission were fit to the additive model λij=αi+βj+εij, where εij denotes error that is made as small as possible in the fitting process. Using least squares to minimize the function [formula] over all compounds having experimental data yields coefficient estimates αi for each A group and βj for each B group. One set of coefficient estimates is obtained for the excitation values and another set is obtained for the emission values. To predict the wavelength of a new compound formed from A and B groups i* and j* the sum αi*+βj* is used.
In some embodiments, for both the spectral and localization analysis, cross-validation was used to obtain unbiased estimates of the prediction performance. Each compound was held out in sequence, and the coefficients αi and βj were fit to the remaining compounds. These values were then used to form a prediction for the held out compound, then the predicted and experimental values were compared to obtain a measure of the accuracy of prediction. Since the wavelength values are on a continuous scale, the predicted values were compared to the experimental values using Pearson correlation coefficients. The localization values are dichotomous, so the proportion of matching predictions was used to compare predicted and experimental localization values.

[3] = system: HeLa cells; assay: Kinetic imaging of NBD-triazine probe uptake and sequestration, fitted to nested two-compartment transport model; format: cell-based; conditions: median over optimal solutions within 5% of the best fit
Description: In living cells, image data was simultaneously acquired with an automated, high-content, kinetic screening instrument equipped with an environmental chamber (see, e.g., V. C. Abraham, D. L. Taylor and J. R. Haskins, Trends in Biotechnology 22, 15 (2004); herein incorporated by reference in its entirety), as cells were incubated with the fluorescent molecules and after removal of extracellular probe. Data was analyzed off line, using an image analysis algorithm to measure the statistical pixel intensity distribution associated with fluorescence probe sequestration in the perinuclear region (see, e.g., FIG. 21; see also, e.g., G. J. Ding et al., Journal of Biological Chemistry 273, 28897 (1998); herein incorporated by reference in its entirety). Data was parametrized with a nested, two-compartment, transport model (see, e.g., W. E. Evans, J. J. Schentag and W. J. Jusko., Applied Pharmacokinetics: Principles of Therapeutic Drug Monitoring (Lippincott Williams & Wilkins, Vancouver, W.A., 1992); herein incorporated by reference in its entirety), using a statistical link function to relate the kinetic coefficient of variation (CV) of pixel intensities in the images with the concentration of probe in vesicles and cytoplasm. Optimal kinetic parameters fitting the experimental data for each probe to the system described by the two-compartment model and statistical link function were determined using the simulated annealing technique (see, e.g., M. Pincus., Oper. Res. 18, 1225 (1979); herein incorporated by reference in its entirety). The present invention is not limited to a particular mechanism. Indeed, an understanding of the mechanism is not necessary to practice the present invention.
To assess how well the model accounts for all the different kinetic traces acquired, a “PVE” (proportion of variance explained) by the model was calculated. The PVE is one minus the ratio of the sum of squared differences between observed and fitted values to the sum of squared differences between observed values and their mean. PVE values close to one indicate good fit to the nested two-compartment model. The average PVE across the probes was 0.92, with >50% of the probes yielded PVE values […]. The present invention is not limited to a particular mechanism. Indeed, an understanding of the mechanism is not necessary to practice the present invention.
Cell culture. HeLa cells were grown in RPMI+10% FCS in a 5% CO2 atmosphere at 37° C. and plated in 96-well plates at a density of 3000 cells/well 24 hours prior to the start of the experiment.
Kinetic Imaging. For influx experiments, cells on 96-well plates were switched to imaging media consisting of RPMI containing 1.0 mM Bromophenol Blue—a soluble, cell-impermeant chromophore used to suppress excitation and emission of extracellular (background) dye fluorescence-, 10 μM probe and 0.1 μM Hoescht 33258 to label the cell nuclei. Plates were then transferred to a KineticScan instrument (Cellomics, Inc., Pittsburgh, Pa.), which contains an environmentally controlled CO2/temperature/humidity chamber, and data was acquired with a 20× objective lens. Images acquisition began approximately 10 min after dye addition, using the Hoescht channel to acquire nuclear images and FITC channel to acquire the NBD image. Plate-scanning mode was used for scanning, in which the instrument builds time-stacks of images by scanning the plate multiple times, returning to the same site of the plate at every scan. For efflux experiments, dye-containing media was removed from the wells of the plate. The wells were washed twice with fresh RPMI medium, imaging media was added, and image acquisition restarted 7 min after the dye-containing media was removed. The last time points of the influx experiment served as the first time point of the efflux experiment. Plates were scanned for approximately two hours in the influx experiment and six hours for the efflux experiment, with each well imaged on average every 7 minutes. […]

SMILES	median Pap(cyto) (apparent partition coefficient between extracellular medium and cytosol) [3]	median Pap(ves) (apparent partition coefficient between cytosol and intracellular vesicles, k(ves)in/k(ves)out) [3]	further results
CN(C)c1ccc(C=O)c2ccccc12 [A group 27]	–	–	αi^mito [1]: −0.3; estimated A group affinity coefficient ai [1]: −0.3; influence of group on peak wavelength [2]: strongly contribute towards the red end of the spectrum; αi^em [2]: 72.0 nm; αi^ex [2]: 11.1 nm
O=Cc1c2ccccc2cc2ccccc12 [A group 34]	–	–	influence of A group on mitochondrial localization [1]: mitochondrial repulsion; αi^mito [1]: −5.0; estimated A group affinity coefficient ai [1]: 5.0; influence of group on peak wavelength [2]: redder; αi^em [2]: 58.8 nm; αi^ex [2]: 14.1 nm
O=Cc1ccc2ccc3cccc4ccc1c2c34 [A group 41]	–	–	αi^em [2]: 46.9 nm; αi^ex [2]: 26.1 nm
O=Cc1ccccn1 [A group 40]	–	–	αi^em [2]: 64.8 nm; αi^ex [2]: −18.1 nm
O=Cc1ccccc1 [A group 2]	–	–	αi^mito [1]: 5.0; estimated A group affinity coefficient ai [1]: 5.0
COc1ccc(CNc2nc(NCCCCCCNc3ccc([N+](=O)[O-])c4nonc34)nc(NCCc3ccccn3)n2)cc1 [Compound C9]	12.33	16.46	–
COc1cccc(CNc2nc(NCCCCCCNc3ccc([N+](=O)[O-])c4nonc34)nc(NCC3CCCCC3)n2)c1 [Compound B6]	242.54	0.36	–
COc1ccc(CNc2nc(NCCCCCCNc3ccc([N+](=O)[O-])c4nonc34)nc(NC3CCCCC3C)n2)cc1 (stereo not shown) [Compound C5]	10.01	9.72	–
CC1CCC(Nc2nc(NCCCCCCNc3ccc([N+](=O)[O-])c4nonc34)nc(NCc3cccc(F)c3)n2)CC1 (stereo not shown) [Compound E4]	11.91	16.46	–
COc1cccc(CNc2nc(NCCCCCCNc3ccc([N+](=O)[O-])c4nonc34)nc(NCCc3ccccc3)n2)c1 [Compound B10]	8.21	27.03	–
COc1ccc(CCNc2nc(NCCCCCCNc3ccc([N+](=O)[O-])c4nonc34)nc(NCCC(C)C)n2)cc1 [Compound D8]	236.99	0.24	–
O=[N+]([O-])c1ccc(NCCCCCCNc2nc(NCc3ccccc3)nc(NC3CCCCC3)n2)c2nonc12 [Compound A7]	7.55	33.83	–
O=[N+]([O-])c1ccc(NCCCCCCNc2nc(NCCC(c3ccccc3)c3ccccc3)nc(NCC3CCCCC3)n2)c2nonc12 [Compound F6]	6.76	19.41	–
COc1cccc(CNc2nc(NCCCCCCNc3ccc([N+](=O)[O-])c4nonc34)nc(NC3CCCCC3C)n2)c1OC (stereo not shown) [Compound H5]	5.12	16.80	–
Cc1ccc(CNc2nc(NCCCCCCNc3ccc([N+](=O)[O-])c4nonc34)nc(NC3CCC(C)CC3)n2)cc1 (stereo not shown) [Compound G4]	23.97	4.01	–
